According to US10822383B2, “Polypeptides capable of producing glucans having alpha-1,2 branches and use of the same” (E I DU PONT DE NEMOURS AND COMPANY, priority 2015, dated 2020):

Legend:
[1] = Alpha-1,2 branching reaction with GTF9905 on products of the GTF8117 reaction; format: biochemical; conditions: 1.13 U/mL GTF9905, 175 g/L sucrose, 30° C., 76.2 h
Procedure: First, a reaction was performed to prepare glucan that was used in the second part of this Example as a substrate for 1,2-branching enzyme. A reaction mixture (20 mL) comprised of sucrose (488 g/L) and GTF8117 (Example 4, 9.4 U/mL) was adjusted to pH 5.5 with 6.0 N hydrochloric acid and stirred at 47° C. Aliquots were withdrawn at predetermined times and quenched by heating at 90° C. for 20 min. The resulting heat-treated aliquots were centrifuged and the supernatants analyzed by HPLC to determine the concentration of sucrose, glucose, fructose, leucrose, oligosaccharides and polysaccharides. After 6 h, the reaction mixture was heated to 90° C. for 30 minutes, and an aliquot of the heat-treated reaction mixture was centrifuged and the resulting supernatant analyzed for soluble monosaccharides, oligosaccharides and polysaccharides (DP8+) (Table 1). The DP8+ polysaccharides appeared to contain about 100% alpha-1,6 linkages.
A second reaction was then performed to conduct alpha-1,2 branching from the products of the first reaction. […] The resulting heat-treated aliquots were centrifuged and the supernatants analyzed by HPLC to determine the concentration of sucrose, glucose, fructose, leucrose, oligosaccharides and polysaccharides. […]

[2] = Alpha-1,2 branching activity of GTFJ18 / GTFJ18T1 on a glucan backbone (NMR linkage profile of product); format: biochemical; conditions: for alpha-1,2 linkages in the product of the branching reaction / alpha-1,6 linkages in the product of the branching reaction: 10% (v/v) crude cell extract, 40 g/L sucrose, 22 hours, NMR
Excerpt: The alpha-1,2 branching activities of each enzyme (GTFJ18 or GTFJ18T1) were individually tested on the glucan product of the glucosyltransferase, GTF5604, which is derived from Streptococcus criceti HS-6 (GENBANK® Acc. No. WP_004226213.1, old gi: 357235604) and disclosed in International Pat. Appl. Publ. No. WO2015/183714 (also referred to therein as SG1018 glucosyltransferase or GtfHS6). GTF5604 (SEQ ID NO:33) has 1338 amino acids with the N-terminal 36 amino acids deduced as its signal peptide by the SignalP 4.0 program. The native nucleotide sequence (positions 1289627-1293643 of GENBANK Acc. No. NZ_AEUV02000002.1) encoding full length GTF5604 (SEQ ID NO:33) including its native signal peptide was synthesized by GenScript and cloned into the SpeI and HindIII sites of the replicative Bacillus expression plasmid pHYT (Takara Bio Inc., Otsu, Japan) under the B. subtilis aprE promoter. The construct was first transformed into E. coli DH10B and selected on ampicillin (100 μg/mL) plates. The confirmed clone, pDCQ918, was then transformed into Bacillus subtilis strain BG6006 (amyE::xylRPxylAcomK-ermC, degUHy32, oppA, ΔspoIIE3501, ΔaprE, ΔnprE, Δepr, ΔispA, Δbpr, Δvpr, ΔwprA, Δmpr-ybfJ, ΔnprB) and selected on tetracycline (12.5 μg/mL) plates, after which the transformed strain, termed as SG1018, was grown in LB containing 10 μg/mL tetracycline first, followed by subculturing into Grant's II medium containing 12.5 μg/mL tetracycline and growth at 37° C. for 2-3 days. The cultures were spun at 15,000×g for 30 min at 4° C. and the supernatant was filtered through 0.22-μm filters. A glucan synthesis reaction was set up containing 10% (v/v) of the SG1018 supernatant with 100 g/L sucrose, 10 mM sodium citrate pH 5 and 1 mM CaCl2. […] The glucan synthesis reaction was subjected to heat inactivation at 95° C. for 30 min.
A branching reaction was set up with 70% (v/v) of the heat-inactivated glucan synthesis reaction. The enzyme being tested for branching activity off of the above glucan product, GTFJ18 or GTFJ18T1, was provided as 10% (v/v) of the above-prepared crude cell extract from EC0059 or EC0059T1, respectively, with 40 g/L sucrose. Each branching reaction was incubated at 37° C. or 30° C. for 22 hours and the products were analyzed by HPLC for sucrose consumption and NMR for linkage profile.
NMR data were acquired on an Agilent DD2 spectrometer (Agilent Technologies, Inc., Santa Clara, Calif.) operating at 500 MHz for ^1H using a 5-mm cryogenic triple-resonance pulsed-field gradient probe. Water suppression was obtained by carefully placing the observe transmitter frequency on resonance for the residual water signal in a “presat” experiment, and then using the first slice of a NOESY experiment with a full phase cycle (multiple of 32) and a mix time of 10 ms. One-dimensional ^1H spectra were acquired with a spectral width of 6410 Hz, acquisition time of 5.1 s, 65536 data points, 4 s pre-saturation and a 90-degree observe pulse. Signal averaging typically involved accumulation of 64 scans. Sample temperature was maintained at 25° C.
Liquid samples were prepared by adding either 50 or 100 μL of completed branching reactions to a 5-mm NMR tube along with 60 μL of D2O containing 12.4 mM 4,4-dimethyl-4-silapentane-1-sulfonic acid sodium salt (DSS) as an internal chemical shift reference, and the balance (450 or 400 μL) of D2O for a total volume of […]. The DSS methyl resonance was set to 0 ppm. […]

GTF9905: Fructobacillus tropaeoli glucosyltransferase, SEQ ID NO:4, mature form positions 36-1672
alpha-1,2 branching activity (in words) [1]: significant alpha-1,2 branching activity

GTFJ18: full length glucosyltransferase from Leuconostoc mesenteroides J18, SEQ ID NO:1 (identical to SEQ ID NO:13)
alpha-1,2 linkages in the product of the branching reaction [2]: 0.6% | alpha-1,6 linkages in the product of the branching reaction [2]: 97%

B1: GTFJ18T1: N-terminal-truncated form of GTFJ18 (first 1664 residues removed), SEQ ID NO:27 (protein)
chain: VKGDKRTIDGVLYTFDKESGERKGLDSISVLPTNGQYTTDKAQNWYYQVDGENVKGLYTNNDGQLRYFDLTTGVQTKGNFVTIGNDTYYFTKEQGDGQIVSEVVSGHYGTVQLSDNSSAWVYRGANDQILKGLQNINGRLQYFDLTTGAQLKGGAANYDGNLYYFESSDGNLVSKIQQSYSTGNYVTDGDKVTYADEQNNQVTGLALIDDQLQYFDPSDGRQVKNEQVIVDGVTYYFDKNGNGQYLFTNTATMSTNEFAKHSAAYSNDSSSFKNTIDGFLTADTWYRPKDILENGQTWVVSSTNDVRPLITVWWLNKDVQVNYSNFMKQNGLLDTSSQFNLQSDQYDLNVAAQKVQVAIEKRISKEKSTDWLKDLLFEAHEDTPSFVKQQFIWNKDSEYQGQGDAWFQGGYLKYGNNELTPTTNSDYRESGNTLDFLLANDVDNSNPAVQAENLNWLHYLMNFGTITANDDDANFDSIRIDAVDFIDNDAIQRTYDYMRDAYKVDASEDNANKHISLVEAGLDAGTSTIKSDALVESNFREAATLSLANQSGENSSLTNMLQDIDGGQIIADHANNATENESTPNYSIIHAHDKGIQEKVGAAITDVTGADWTNFTDDQLKEGLAAYYQDQRSTNKKYNIYNLPSIYALMLTNKDTVPRVYYGDMYQDDGQYMEKQSIYYDAIVSLMNTRKSYVSGGQTMDVDEHGLLKSVRFGKDAMTASDLGTNETRTEGVGVLVGNDSSLKLNDSDTVTLEMGAAHKNQKYRAALLTTSDGIVTYDADNDAPTIWTDDRGTLTFSNKEIAGQDYTSVQGFANSQVSGYLAVWVPVGASDDQDVRTAALTDANLDDKVLHSNAALDSNLIYEGFSNFQPKATTNDELTNVVIAKNANLFEKWGITSFEMAPQYRSSGDHTFLDSTIDNGYAFTDRYDLGFETPTKYGTDKDLRTAIKALHQSNMQVMADVVDNQVYNLSGQEVVSASRAGVYGNDVSTGFGTQLYAVNSVGGGKYQAQYGGEYLNELKQQYPDLFEAKTYDYWVKNYSNDGSDPYYTLSQNTRKDMPSSEVIKQWSAKYMNGTNVLGNGMGYVLKDWNTGEYFKIGEKNADFITN
modifications: Leuconostoc mesenteroides
alpha-1,2 linkages in the product of the branching reaction [2]: 18% | alpha-1,6 linkages in the product of the branching reaction [2]: 82% | alpha-1,2 branching activity (in words) ([2]; compared to full length GTFJ18): much higher alpha-1,2 branching activity
